Read-outs that look alike come from different tables or passages of the source.
Assays:
HTT mRNA = test: RT-qPCR splicing assay, HTT canonical junction (CJ) and alternative junction (AJ) mRNA; assay type: cell-based, human; settings: Homo sapiens
Outline: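 Read-out is one-step RT-qPCR on cell lysates detecting the exon-exon junction of each isoform, normalized to a housekeeping gene (PPIA in A673, GAPDH or GUSB in K562).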

SMN2 mRNA = test: RT-qPCR splicing assay, SMN2 canonical junction (CJ) mRNA; assay type: cell-based, human; settings: Homo sapiens; Table 5 panel; canonical junction qPCR; compound concentration having 50% response in CJ decrease; read-out: SMN2 IC50 (decrease in CJ mRNA levels)
Outline: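 Read-out is canonical exon-exon junction mRNA quantified by RT-qPCR against a GAPDH, GUSB or PPIA control. Cells (A673 or K562) received compound for 24 h, top final dose 10 uM in an 11-point 3-fold series.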

IC50 (HTT mRNA; decrease in HTT canonical junction (CJ) mRNA, RT-qPCR, read-out: HTT CJ IC50): > 10 µM | IC50 (HTT mRNA; Table 5 panel, canonical junction qPCR, compound concentration having 50% response in CJ decrease, read-out: HTT IC50 (decrease in CJ mRNA levels)): > 10 µM | IC50 (SMN2 mRNA): 1 to 10 µM
SMILES: CNc1cc(-c2cc(C#N)c3nc(C)cn3c2)cc2ncn(C3CCNCC3)c(=O)c12 [Compound 363, 2-methyl-6-[5-(methylamino)-4-oxo-3-(piperidin-4-yl)quinazolin-7-yl]imidazo[1,2-a]pyridine-8-carbonitrile]
AC50 (HTT mRNA; increase in HTT alternative junction (AJ) mRNA, RT-qPCR, read-out: HTT AJ AC50): > 10 µM
